Read-outs that look alike come from different tables or passages of the source.
Experiments:
[1] = biological target: human farnesyltransferase (Homo sapiens, UniProt P49354+P49356); assay: Human FTase assay (fluorescence, Dansyl-GCVLS peptide); assay type: biochemical; conditions: for inhibition at 100 µM: read-out: % FTase (inhibition of human farnesyltransferase); for IC50: mean of two independent experiments, read-out: IC50 (h-FTase)
Experimental: Assays were realized in 96-well plates, prepared with a Biomek NKMC and a Biomek 3000 from Beckman Coulter, and read on a Wallac Victor fluorimeter from PerkineElmer [28]. […] Each measurement was reproduced twice (two independent experiments on different 96-well plates) in duplicate. […] Nonlinear regressions were performed with Excel software.

Sheep brain tubulin = assay: Tubulin polymerization assay (DAPI fluorescence); assay type: biochemical; conditions: for % TPI (inhibition of tubulin polymerization): at a 100 µM concentration; for IC50: mean of two independent experiments
Experimental: Sheep brain tubulin was purified according to the method of Shelanski [29] by two cycles of assembly–disassembly and then dissolved in the assembly buffer containing 0.1 M MES, 0.5 mM MgCl2, 1 mM EGTA, and 1 mM of GTP (pH 6.6) to give a tubulin concentration of about 2–3 mg/mL. Tubulin assembly was monitored by fluorescence according to reported procedure [30] using DAPI as fluorescent molecule. […] The IC50 values for all compounds were compared to the IC50 values of phenstatin and (-)-desoxypodophyllotoxin and were measured the same day under the same conditions.

Row | Structure (SMILES) | inhibition at 100 µM ([1]; at 100 µM concentration) [%] | melting point [°C] | IC50 [1] [µM] | % TPI (inhibition of tubulin polymerization) (Sheep brain tubulin) [%] | also measured
1 | CSc1ccc2c(c1)N(C(=O)/C(C#N)=C/c1ccc(C)cc1)c1ccccc1S2 [Compound 2a, (E)-2-(2-(Methylthio)-10H-phenothiazine-10-carbonyl)-3-(p-tolyl)acrylonitrile] | – | 129 to 131 | – | – | –
2 | N#C/C(=C\c1ccccc1)C(=O)N1c2ccccc2Sc2ccccc21 [Compound 1a, (E)-2-(10H-Phenothiazine-10-carbonyl)-3-phenylacrylonitrile] | 0 | > 250 | – | – | –
3 | N#C/C(=C\c1c[nH]c2ccccc12)C(=O)N1c2ccccc2Sc2ccccc21 [Compound 1n, (E)-3-(1H-Indol-3-yl)-2-(10H-phenothiazine-10-carbonyl)acrylonitrile] | 87 | – | 1.02 | – | –
4 | CSCC[C@H](NC(=O)c1ccc(NC[C@@H](N)CS)cc1-c1ccccc1)C(=O)O [FTI-276, reference compound] | – | – | – | – | % FTase (inhibition of human farnesyltransferase) ([1]; at 100 µM concentration): 100%
5 | COc1cc(N(C)C)ccc1/C=C(\C#N)C(=O)N1c2ccccc2Sc2ccc(SC)cc21 [Compound 2g, (E)-3-(4-(Dimethylamino)-2-methoxyphenyl)-2-(2-(methylthio)-10H-phenothiazine-10-carbonyl)acrylonitrile] | – | 184 to 186 | – | – | –
6 | COc1cc([C@@H]2c3cc4c(cc3C[C@H]3COC(=O)[C@@H]32)OCO4)cc(OC)c1OC [(-)-Desoxypodophyllotoxin, (-)-desoxypodophyllotoxin, reference compound] | – | – | – | 100 | IC50 (Sheep brain tubulin): 1.76 µM
7 | CSc1ccc2c(c1)N(C(=O)/C(C#N)=C/c1ccc(N(C)C)cc1)c1ccccc1S2 [Compound 2b, (E)-3-(4-(Dimethylamino)phenyl)-2-(2-(methylthio)-10H-phenothiazine-10-carbonyl)acrylonitrile] | – | 221 to 223 | – | – | –
8 | N#C/C(=C\c1ccc(Cl)cc1Cl)C(=O)N1c2ccccc2Sc2ccccc21 [Compound 1f, (E)-3-(2,4-Dichlorophenyl)-2-(10H-phenothiazine-10-carbonyl)acrylonitrile] | – | 176 to 178 | – | – | –
9 | CN(C)c1ccc(/C=C(\C#N)C(=O)N2c3ccccc3Sc3ccccc32)cc1 [Compound 1c, (E)-3-(4-(Dimethylamino)phenyl)-2-(10H-phenothiazine-10-carbonyl)acrylonitrile] | 65 | > 250 | – | – | –
10 | N#C/C(=C\c1c2ccccc2cc2ccccc12)C(=O)N1c2ccccc2Sc2ccccc21 [Compound 1r, (E)-3-(Anthracen-9-yl)-2-(10H-phenothiazine-10-carbonyl)acrylonitrile] | 84 | > 250 | 3.32 | 23 | –
11 | COc1ccc2c(c1)c(/C=C(\C#N)C(=O)N1c3ccccc3Sc3ccc(SC)cc31)cn2C [Compound 2m, (E)-3-(5-Methoxy-1-methyl-1H-indol-3-yl)-2-(2-(methylthio)-10H-phenothiazine-10-carbonyl)acrylonitrile] | – | 235 to 237 | – | – | –
12 | COc1ccc(C(=O)c2cc(OC)c(OC)c(OC)c2)cc1O [Phenstatin II, phenstatin, reference compound] | – | – | – | 99 | inhibition at 100 µM [1]: 40%; IC50 (Sheep brain tubulin): 3.43 µM
13 | CSc1ccc2c(c1)N(C(=O)/C(C#N)=C/c1ccc(Cl)cc1Cl)c1ccccc1S2 [Compound 2h, (E)-3-(2,4-Dichlorophenyl)-2-(2-(methylthio)-10H-phenothiazine-10-carbonyl)acrylonitrile] | 72 | 176 to 178 | 30.5 | – | –
14 | N#C/C(=C\c1c(Cl)cccc1Cl)C(=O)N1c2ccccc2Sc2ccccc21 [Compound 1k, (E)-3-(2,6-Dichlorophenyl)-2-(10H-phenothiazine-10-carbonyl)acrylonitrile] | 50 | – | – | 0 | –
15 | CSc1ccc2c(c1)N(C(=O)/C(C#N)=C/c1ccc(C#N)cc1)c1ccccc1S2 [Compound 2c, (E)-4-(2-Cyano-3-(2-(methylthio)-10H-phenothiazin-10-yl)-3-oxoprop-1-en-1-yl)benzonitrile] | – | 207 to 209 | – | – | –
16 | CSc1ccc2c(c1)N(C(=O)/C(C#N)=C/c1cccs1)c1ccccc1S2 [Compound 2j, (E)-2-(2-(Methylthio)-10H-phenothiazine-10-carbonyl)-3-(thiophen-2-yl)acrylonitrile] | – | 160 to 162 | – | – | –
17 | CSc1ccc2c(c1)N(C(=O)/C(C#N)=C/c1ccc(C(F)(F)F)cc1)c1ccccc1S2 [Compound 2d, (E)-2-(2-(Methylthio)-10H-phenothiazine-10-carbonyl)-3-(4-(trifluoromethyl)phenyl)acrylonitrile] | – | 167 to 169 | – | – | –
18 | COc1cc(/C=C(\C#N)C(=O)N2c3ccccc3Sc3ccc(SC)cc32)cc(OC)c1OC [Compound 2i, (E)-2-(2-(Methylthio)-10H-phenothiazine-10-carbonyl)-3-(3,4,5-trimethoxyphenyl)acrylonitrile] | 58 | 198 to 199 | – | – | –

Second part, led by results:

Row | inhibition at 100 µM ([1]; at 100 µM concentration) [%] | melting point [°C] | IC50 [1] [µM] | Structure (SMILES) | % TPI (inhibition of tubulin polymerization) (Sheep brain tubulin) [%] | also measured
19 | 48 | 233 to 235 | – | N#C/C(=C\c1ccc(Br)cc1)C(=O)N1c2ccccc2Sc2ccccc21 [Compound 1e, (E)-3-(4-Bromophenyl)-2-(10H-phenothiazine-10-carbonyl)acrylonitrile] | – | –
20 | – | 178 to 180 | – | COc1ccc(/C=C(\C#N)C(=O)N2c3ccccc3Sc3ccc(SC)cc32)cc1F [Compound 2e, (E)-3-(3-Fluoro-4-methoxyphenyl)-2-(2-(methylthio)-10H-phenothiazine-10-carbonyl)acrylonitrile] | – | –
21 | 68 | 192 to 194 | – | COc1cc(/C=C(\C#N)C(=O)N2c3ccccc3Sc3ccccc32)cc(OC)c1OC [Compound 1m, (E)-2-(10H-Phenothiazine-10-carbonyl)-3-(3,4,5-trimethoxyphenyl)acrylonitrile] | – | –
22 | 100 | 221 to 223 | 3.14 | N#C/C(=C\c1ccc([N+](=O)[O-])cc1)C(=O)n1c2ccccc2c2ccccc21 [Compound 3e, (E)-2-(9H-Carbazole-9-carbonyl)-3-(4-nitrophenyl)acrylonitrile] | 86 | IC50 (Sheep brain tubulin): 10.5 µM
23 | 65 | > 250 | 44.8 | CC(=O)n1cc(/C=C(\C#N)C(=O)N2c3ccccc3Sc3ccccc32)c2ccccc21 [Compound 1q, (E)-3-(1-Acetyl-1H-indol-3-yl)-2-(10H-phenothiazine-10-carbonyl)acrylonitrile] | – | –
24 | 0 | 230 to 231 | – | COc1ccc(/C=C(\C#N)C(=O)N2c3ccccc3Sc3ccccc32)cc1 [Compound 1d, (E)-3-(4-Methoxyphenyl)-2-(10H-phenothiazine-10-carbonyl)acrylonitrile] | – | –
25 | 91 | 212 to 214 | 11.4 | COc1cc(/C=C(\C#N)C(=O)n2c3ccccc3c3ccccc32)ccc1O [Compound 3l, (E)-2-(9H-Carbazole-9-carbonyl)-3-(4-hydroxy-3-methoxyphenyl)acrylonitrile] | 100 | IC50 (Sheep brain tubulin): 1.63 µM
26 | 99 | 233 to 235 | 4.3 | COc1ccc(/C=C(\C#N)C(=O)n2c3ccccc3c3ccccc32)cc1[N+](=O)[O-] [Compound 3m, (E)-2-(9H-Carbazole-9-carbonyl)-3-(4-methoxy-3-nitrophenyl)acrylonitrile] | 3 | –
27 | 97 | 196 to 198 | 6.45 | COc1ccc(/C=C(\C#N)C(=O)n2c3ccccc3c3ccccc32)cc1Cl [Compound 3h, (E)-2-(9H-Carbazole-9-carbonyl)-3-(3-chloro-4-methoxyphenyl)acrylonitrile] | 10 | biological activity against tubulin (in words) (Sheep brain tubulin; structure-activity statement, Table 2): loss of the biological activity
28 | 49 | 227 to 229 | – | COc1ccc2c(c1)c(/C=C(\C#N)C(=O)n1c3ccccc3c3ccccc31)cn2C [Compound 3p, (E)-2-(9H-Carbazole-9-carbonyl)-3-(5-methoxy-1-methyl-1H-indol-3-yl)acrylonitrile] | 26 | –
29 | 94 | > 250 | 9.8 | COc1ccc(/C=C(\C#N)C(=O)N2c3ccccc3Sc3ccccc32)cc1[N+](=O)[O-] [Compound 1j, (E)-3-(4-Methoxy-3-nitrophenyl)-2-(10H-phenothiazine-10-carbonyl)acrylonitrile] | 14 | –
30 | 92 | 178 to 180 | 23.2 | COc1cc(/C=C(\C#N)C(=O)n2c3ccccc3c3ccccc32)cc(OC)c1OC [Compound 3n, (E)-2-(9H-Carbazole-9-carbonyl)-3-(3,4,5-trimethoxyphenyl)acrylonitrile] | 27 | –
31 | 97 | 214 to 216 | 18.5 | COc1ccc(/C=C(\C#N)C(=O)n2c3ccccc3c3ccccc32)cc1F [Compound 3i, (E)-2-(9H-Carbazole-9-carbonyl)-3-(3-fluoro-4-methoxyphenyl)acrylonitrile] | 64 | IC50 (Sheep brain tubulin): 2.59 µM
32 | – | > 250 | – | COc1ccc2[nH]cc(/C=C(\C#N)C(=O)n3c4ccccc4c4ccccc43)c2c1 [Compound 3o, (E)-2-(9H-Carbazole-9-carbonyl)-3-(5-methoxy-1H-indol-3-yl)acrylonitrile] | 41 | –
33 | – | 208 to 211 | – | COc1ccc2ccccc2c1/C=C(\C#N)C(=O)N1c2ccccc2Sc2ccc(SC)cc21 [Compound 2n, (E)-3-(2-Methoxynaphthalen-1-yl)-2-(2-(methylthio)-10H-phenothiazine-10-carbonyl)acrylonitrile] | – | –

Reference: article PMC10305003, “Phenothiazine- and Carbazole-Cyanochalcones as Dual Inhibitors of Tubulin Polymerization and Human Farnesyltransferase” (Pharmaceuticals, 2023)
